Like-named read-outs stand apart in the source and are kept apart here.
Tests used:
[1] = system: differentiated 3T3-L1 adipocytes; experiment: Neutral lipid accumulation in differentiated 3T3-L1 adipocytes (NR staining); format: cell-based, Mouse; settings: 100 μM, 3 days, differentiated 3T3-L1, relative to control
Experimental: The differentiation of 3T3-L1 cells was performed as described by Ibrahim et al. with slight modifications. The preadipocyte cells were seeded at a concentration of 0.2 × 10^4 per 100 μL into each of the wells of a 96-well plate and were grown at 37°C with 5% CO2 for 3 days, until confluent. On Day 4, differentiation was induced by replacing the medium with 100 μL Differentiation Medium 1 (DM1, DMEM supplemented with final concentrations of 10 μg/mL insulin, 0.5 mM isobutyl methylxanthine, 1 μM dexamethasone, and 2 μM rosiglitazone) for further 3 days. On Day 8, DM1 was replaced with DM2 (DMEM with only 10 μg/mL insulin) for 3 days. […]
With NR staining, the accumulation of neutral lipids was assessed in the differentiated 3T3-L1 cells and OA-induced lipid accumulation in HepG2 cells following treatment with the triterpenoids. […] Background fluorescence was measured at an excitation and an emission wavelength of 485 nm and 590 nm (Ex4850 and Em590), respectively. […] The dye was extracted from the stained cells with 100 μL PBS, and the fluorescence was measured again at Ex450 and Em590. The difference in fluorescence between the extracted dye and background fluorescence was calculated. The percentage of intracellular lipid accumulation relative to the untreated control cells was calculated.

[2] = biological target: T1, porcine PNLIP (pancreatic lipase) (Sus scrofa, UniProt P00591); experiment: PNLIP inhibition and enzyme kinetics with p-nitrophenyl palmitate; format: biochemical; settings: for Pancreatic lipase Mode of inhibition: Lineweaver–Burk plot
T1 sequence (P00591 1-450): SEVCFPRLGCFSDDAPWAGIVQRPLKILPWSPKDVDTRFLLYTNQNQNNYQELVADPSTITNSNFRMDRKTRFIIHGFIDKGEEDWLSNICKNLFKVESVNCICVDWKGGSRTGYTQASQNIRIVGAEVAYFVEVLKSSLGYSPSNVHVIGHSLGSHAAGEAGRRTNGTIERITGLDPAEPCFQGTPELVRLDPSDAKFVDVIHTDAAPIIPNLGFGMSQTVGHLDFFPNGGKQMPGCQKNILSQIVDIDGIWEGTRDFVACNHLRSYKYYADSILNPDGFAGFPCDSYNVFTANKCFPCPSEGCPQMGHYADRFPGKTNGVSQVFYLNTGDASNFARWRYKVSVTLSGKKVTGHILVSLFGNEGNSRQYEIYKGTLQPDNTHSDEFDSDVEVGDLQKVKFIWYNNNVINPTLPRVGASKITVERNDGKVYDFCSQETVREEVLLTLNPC
Experimental: The PNLIP inhibitory activity of the compounds was tested using p-nitrophenyl palmitate (p-NPP) as an artificial substrate. […] The reaction was initiated by adding 10 mM p-NPP at 37°C for 20 min. Then, the enzyme activity was determined calorimetrically by measuring the release of p-nitrophenol measured at 405 nm using a SpectraMax paradigm microplate reader (Molecular Devices Inc, San Jose, California). The IC50 values were determined using nonlinear regression from the absorbance versus concentration curves.
The modes of enzyme inhibition were determined using the reaction protocol described above. While all the other parameters remained unchanged, the enzyme activity was measured at increasing substrate concentrations (2–10 mM) in the presence and absence of the test compound (inhibitor). Double reciprocal (Lineweaver–Burk) plots were generated and used to determine the inhibition types Km and Vmax. The inhibitory constants (Ki) of the test compounds were also calculated.

[3] = system: HSL gene; experiment: qRT-PCR HSL mRNA expression in differentiated 3T3-L1 adipocytes; format: cell-based, Mouse; settings: 100 μM, 3 days
Experimental: (§1) The mRNA expression of selected lipogenic and lipolytic genes was quantified using qRT–PCR following the established protocol as described by Ndlovu et al.. […] The RNA was extracted with the […] RNA extraction kit. The RNA was then converted into cDNA using an iScript cDNA Synthesis Kit from […] following the manufacturer's protocols. qRT–PCR analysis was performed using Bio-Rad CFX Maestro software. All mRNA expression levels were standardized to ensure consistency using glyceraldehyde 3-phosphate dehydrogenase (GAPDH) as a reference gene. The primers used were designed using the BLAST NCBI online server (https://www.ncbi.nlm.nih.gov/tools/primer-blast/). Data was expressed as fold change relative to the untreated control.

[4] = system: HepG2 cells; experiment: Cell viability assessment (crystal violet), HepG2; format: cell-based, human; settings: triterpenoids at 25 and 100 μM; lovastatin 50 μM
Experimental: The 3T3-L1 and HepG2 cells (at 70%–80% confluence) were seeded at concentrations of 0.2 × 10^4 per 100 μL and 5.0 × 10^4 per 100 μL, respectively, in a 96-well plate. […] Control cells were exposed to either 0.01% methanol (vehicle control) or sterile phosphate buffered saline (PBS) pH 7.4. Following the exposure, the cells were fixed with 20% formalin (final concentration 2% [v/v]) at 37°C for 30 min. The solution was discarded, and the plate was blotted dry. The cells were stained with the addition of 100 μL f CV (0.1% in 200 mM formic acid) to each well. After 30 min at room temperature, the dye solution was removed, and the plate was washed well with tap water and dried. The dye was then extracted from the stained cells with 100 μL of a 10% (v/v) acetic acid solution. The absorbance was measured at 630 nm, and the results were expressed as percentage cell viability relative to the control (cells treated with PBS).

[5] = system: differentiated 3T3-L1 adipocytes; experiment: Intracellular lipid accumulation in differentiated 3T3-L1 adipocytes (ORO staining); format: cell-based, Mouse; settings: 100 μM, 3 days, differentiated 3T3-L1, relative to control
Experimental: The differentiation of 3T3-L1 cells was performed as described by Ibrahim et al. with slight modifications. The preadipocyte cells were seeded at a concentration of 0.2 × 10^4 per 100 μL into each of the wells of a 96-well plate and were grown at 37°C with 5% CO2 for 3 days, until confluent. On Day 4, differentiation was induced by replacing the medium with 100 μL Differentiation Medium 1 (DM1, DMEM supplemented with final concentrations of 10 μg/mL insulin, 0.5 mM isobutyl methylxanthine, 1 μM dexamethasone, and 2 μM rosiglitazone) for further 3 days. On Day 8, DM1 was replaced with DM2 (DMEM with only 10 μg/mL insulin) for 3 days. Finally, DM2 was replaced with only DMEM, and the cells were exposed to the different concentrations (1–100 μM) of the test compounds for a further 3 days. Control cells were exposed to either the vehicle control or sterile PBS.
The ORO staining technique was used to detect lipid droplets in both differentiated adipocytes and OA-exposed hepatocytes. […] The ORO dye was then extracted with 60% isopropanol, and the absorbance was measured at 405 nm. For the 3T3-L1 cells, the percentage of lipid accumulation was relative to the control cells (PBS-treated) cells, with 100% lipid formation, while for HepG2, the results were expressed as the percentage of lipid accumulation relative to cells exposed to OA.

[6] = system: AMPK gene; experiment: qRT-PCR AMPK mRNA expression in differentiated 3T3-L1 adipocytes; format: cell-based, Mouse; settings: 100 μM, 3 days, not significant versus control
Experimental: as §1

[7] = system: HepG2 cells; experiment: Oleic acid-induced hepatic lipid accumulation in HepG2 cells (ORO staining); format: cell-based, human; settings: 100 μM, 48 h, HepG2 exposed to 1 mM oleic acid
Experimental: (§2) The HepG2 cells were seeded in a 96-well plate at a cell density of 5 × 10^4 and left to attach overnight. The cells were incubated at 37°C, 5% CO2 for 48 h, and 1 mM OA (final concentration) to stimulate lipid accumulation. […] Control cells were exposed to either the vehicle control or sterile PBS.
The ORO staining technique was used to detect lipid droplets in both differentiated adipocytes and OA-exposed hepatocytes. The cells were fixed with 2% (v/v) formaldehyde for 30 min at 37°C. The formaldehyde was then discarded, and the plates were air-dried. The fixed cells were stained with ORO staining solution (three parts of 0.5% ORO (w/v) in 60% isopropyl alcohol and two parts of water) for 1 h. After staining, the excess ORO was discarded, and the plates were rinsed with water and dried. Microscopic images were acquired with an Olympus microscope (Olympus, Tokyo, Japan). The ORO dye was then extracted with 60% isopropanol, and the absorbance was measured at 405 nm. For the 3T3-L1 cells, the percentage of lipid accumulation was relative to the control cells (PBS-treated) cells, with 100% lipid formation, while for HepG2, the results were expressed as the percentage of lipid accumulation relative to cells exposed to OA.

[8] = system: C/EBPα gene; experiment: qRT-PCR C/EBPα mRNA expression in differentiated 3T3-L1 adipocytes; format: cell-based, Mouse; settings: 100 μM, 3 days
Experimental: as §1

[9] = system: differentiated 3T3-L1 cells; experiment: Glycerol release from isoproterenol-stimulated differentiated adipocytes (lipolysis); format: cell-based, Mouse; settings: 100 μM, 3 days, then 100 nM isoproterenol 3 h
Experimental: Subsequently, the cells were exposed to isoproterenol (final concentration of 100 nM) for 3 h to stimulate lipolysis. The glycerol levels released into the medium were used as a measure of lipolysis evaluated using a commercial lipolysis colorimetric assay kit (MAK211) according to the manufacturer's instructions. Cell viability of the lipolysis-induced adipocytes was determined with CV staining.

[10] = system: HepG2 cells; experiment: Oleic acid-induced neutral lipid accumulation in HepG2 cells (NR staining); format: cell-based, human; settings: 100 μM, 48 h, HepG2 exposed to 1 mM oleic acid
Experimental: as §2
With NR staining, the accumulation of neutral lipids was assessed in the differentiated 3T3-L1 cells and OA-induced lipid accumulation in HepG2 cells following treatment with the triterpenoids. The cells were washed with PBS and fixed with 4% formaldehyde for 1 h, and then the cells were stained with the NR staining solution (100 μM in 100% DMSO) in the dark for 3 h. Background fluorescence was measured at an excitation and an emission wavelength of 485 nm and 590 nm (Ex4850 and Em590), respectively. The dye solution was then discarded, the wells were then rinsed with PBS, and the plate was blotted dry. The dye was extracted from the stained cells with 100 μL PBS, and the fluorescence was measured again at Ex450 and Em590. The difference in fluorescence between the extracted dye and background fluorescence was calculated. The percentage of intracellular lipid accumulation relative to the untreated control cells was calculated.

[11] = system: PPARγ gene; experiment: qRT-PCR PPARγ mRNA expression in differentiated 3T3-L1 adipocytes; format: cell-based, Mouse; settings: 100 μM, 3 days
Experimental: as §1

SMILES	reduction in neutral lipid accumulation (NR staining) [1] [%]	IC50 [2] [µM]	Ki [2] [µM]	Pancreatic lipase Mode of inhibition [2]	reduction of HSL gene expression [3] [%]	cytotoxicity in the HepG2 model (abstract) [4]	decrease in lipid accumulation (ORO staining) [5] [%]	increase in the expression of the AMPK gene [6] [%]	reduction of OA-induced lipid accumulation (ORO staining) [7] [%]	reduction of C/EBPα gene expression [8] [%]	decrease in glycerol release [9] [%]	reduction in neutral lipid accumulation (NR staining) [10] [%]	reduction of PPARγ gene expression [11] [%]	Ki ([2]; Lineweaver–Burk, substrate 2–10 mM, mean ± SEM (n = 3), read-out: Pancreatic lipase Ki) [µM]	IC50 ([2]; porcine PNLIP, p-NPP substrate, pH 7.4, 37°C, mean ± SEM (n = 3), read-out: Pancreatic lipase IC50) [µM]
CC(C)=CCCC(C(=O)O)C1CCC2(C)C3CCC4C(C)(CCC(O)C4(C)C)C3=CCC12C (stereo not drawn) [RA-5, 3β-hydroxylanosta-9,24-dien-21-oic acid]	10.37	27.6 ± 8.51	28.7 ± 8.84	mixed type of inhibition	66.54	lacked cytotoxicity	20.67	28.05	23.47	49.72	34.72	39	77.40	–	–
C/C(=C/CC[C@H](C(=O)O)C1CC[C@]2(C)C3=CCC4C(C)(C)[C@H](O)CC[C@]4(C)C3CC[C@@]12C)CO (stereo partly drawn) [ARM-2, 3α,26-dihydroxytirucalla-7,24-dien-21-oic acid]	19.27	–	–	Noncompetitive	60.38	lacked cytotoxicity	22.21	39.10	31.56	55.65	36.47	40	59.30	52.9 ± 7.19	35.8 ± 12.4
CCCCCCCCCCC[C@@H](C[C@@H]1OC(=O)[C@H]1CCCCCC)OC(=O)[C@H](CC(C)C)NC=O [Orlistat, orlistat, reference compound]	–	–	–	Uncompetitive	–	–	–	–	–	–	–	–	–	–	–
